Results published in US20090264473A1, “Novel Crystalline Forms of Antidiabetic Compounds” (priority 2006, published 2009).
Counter-ions that a name gives are not always drawn.

Assays:
[1] = hygroscopicity (weight gain in humid environment); format: physicochemical
[2] = bioavailability in laboratory studies in rats; format: in vivo
[3] = bioavailability in laboratory studies in dogs; format: in vivo
[4] = water solubility; format: physicochemical
[5] = bioavailability in animals; format: in vivo
[6] = stability of crystal form; format: physicochemical
[7] = chemical stability; format: physicochemical

weight gain when placed in humid environment ([1]; environment with up to 95% RH)	bioavailability [2]	bioavailability [3]	water solubility ([4]; native pH)	water solubility ([4]; neutral pH)	bioavailability [5]	chemical stability [7]	chemical stability on storage ([7]; 8 months at 40° C. and 75% RH)	hygroscopicity [1]	Structure (SMILES)	stability with respect to retaining crystal form [6]
about 0.2 wt %	good bioavailability	good bioavailability	very low water solubility	low water solubility	good bioavailability				CCCc1nc(Oc2ccc(Cl)cc2)ccc1-c1noc2cc(Cl)c(O[C@@H](C)C(=O)O)cc12 [Crystalline Free Acid Anhydrate, (2S)-2-({6-chloro-3-[6-(4-chlorophenoxy)-2-propylpyridin-3-yl]-1,2-benzisoxazol-5-yl}oxy)propanoic acid]	stable with respect to retaining their crystal form
						chemically stable	remaining unchanged	non-hygroscopic	CCCc1nc(Oc2ccc(Cl)cc2)ccc1-c1noc2cc(Cl)c(O[C@@H](C)C(=O)O)cc12 [benzenesulfonate salt]	
